Source: US20240383954A1, “PEPTIDE INHIBITORS OF INTERLEUKIN-23 RECEPTOR AND THEIR USE TO TREAT INFLAMMATORY DISEASES” (Janssen Biotech, Inc., priority 2020, published 2024)
Where a name gives a salt, the structure may show the parent alone. Positions of bridges follow the written chain, without caps; N, C: chain ends. Non-standard residues stand in square brackets, D forms with d. Residues, ends and D or L forms follow the SMILES beside them. *: point of attachment. Trp(7-Me) = Cc1cccc2c(C[C@H](N)C(=O)O)c[nH]c12; 2Nal = N[C@@H](Cc1ccc2ccccc2c1)C(=O)O; AEF = NCCOc1ccc(C[C@H](N)C(=O)O)cc1; αMeY = C[C@](N)(Cc1ccc(O)cc1)C(=O)O; αMeF = C[C@](N)(Cc1ccccc1)C(=O)O; αMeE = C[C@](N)(CCC(=O)O)C(=O)O; Pen = CC(C)(S)[C@H](N)C(=O)O; Isobutyryl = CC(C)C(=O)*; Ac5c = NC1(C(=O)O)CCCC1; Thp = NC1(C(=O)O)CCOCC1; Propionyl = CCC(=O)*; Tfa = O=C(C(F)(F)F)*

Target: IL-23R (Homo sapiens, UniProt Q5VWK5)
Assay: cell-based
Settings: PBMC pSTAT3 IC50 (nM), PBMCs from healthy donors, IL-23 5 ng/mL, 30 minutes, phosphorylated STAT3
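Also: cryopreserved PBMCs stimulated at 37 °C in 5% CO2, then lysed, with phosphorylated STAT3 quantified in lysates using a phospho-STAT panel kit.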

Sequence of IL-23R (Q5VWK5 24-629): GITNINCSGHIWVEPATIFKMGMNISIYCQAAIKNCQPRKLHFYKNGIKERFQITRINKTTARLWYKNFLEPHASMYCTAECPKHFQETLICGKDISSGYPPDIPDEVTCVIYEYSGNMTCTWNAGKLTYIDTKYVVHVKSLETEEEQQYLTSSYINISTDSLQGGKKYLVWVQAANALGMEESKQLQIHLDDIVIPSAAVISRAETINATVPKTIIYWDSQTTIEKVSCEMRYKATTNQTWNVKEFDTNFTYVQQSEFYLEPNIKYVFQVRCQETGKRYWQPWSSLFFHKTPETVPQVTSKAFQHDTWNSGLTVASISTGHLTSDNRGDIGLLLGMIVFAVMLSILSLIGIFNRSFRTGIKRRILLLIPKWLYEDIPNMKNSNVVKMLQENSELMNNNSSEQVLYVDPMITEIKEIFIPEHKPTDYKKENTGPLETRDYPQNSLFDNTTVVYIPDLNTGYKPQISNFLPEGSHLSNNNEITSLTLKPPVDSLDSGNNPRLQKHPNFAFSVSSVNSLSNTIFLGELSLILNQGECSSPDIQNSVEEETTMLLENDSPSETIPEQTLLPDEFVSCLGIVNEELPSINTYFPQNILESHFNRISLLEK
Experimental: Cryopreserved peripheral blood mononuclear cells (PBMCs) from healthy donors were thawed and washed twice in ImmunoCult-XF T cell expansion medium (XF-TCEM) supplemented with CTL anti-aggregate wash. […] The cells were stimulated with cytokine for 30 minutes at 37° C. in 5% CO2, transferred onto ice for 10 minutes, and lysed. Cell lysates were stored at −80° C. until phosphorylated STAT3 was measured using the phospho-STAT panel kit (Meso Scale Discovery, K15202D).

| Structure (SMILES) | IC50 |
| --- | --- |
| CC(=O)NCCCC[C@@H]1NC(=O)[C@H](Cc2c[nH]c3ccccc23)NC(=O)[C@H]([C@@H](C)O)NC(=O)[C@H](CC(N)=O)NC(=O)[C@@H](NC(=O)[C@@H](CCCNC(=N)N)NC(C)=O)C(C)(C)SSC(C)(C)[C@@H](C(=O)N[C@@H](Cc2ccc(OCCN)cc2)C(=O)N[C@@H](Cc2ccc3ccccc3c2)C(=O)NC2(C(=O)N[C@@H](CCC(=O)O)C(=O)N[C@@H](CC(N)=O)C(=O)NC3(C(N)=O)CCOCC3)CCCC2)NC1=O [Compound 88, Ac-[(D)Arg]-[Pen]-N-T-W-[Lys(Ac)]-[Pen]-Phe[4-(2-aminoethoxy)]-[2-Nal]-[Acvc]-E-N-[THP]-NH2] (Ac-[dR][Pen]NTWK(Ac)[Pen][AEF][2Nal][Ac5c]EN[Thp]-NH2; disulfide 2-7) | 3.7 nM |
| COc1ccc(C[C@H](NC(=O)[C@H](CC(N)=O)NC(=O)[C@](C)(CCC(=O)O)NC(=O)C2(NC(=O)[C@H](Cc3ccc4ccccc4c3)NC(=O)[C@H](Cc3ccc(OCCN)cc3)NC(=O)[C@@H]3CSCC[C@H](NC(=O)[C@@H](CCCNC(=N)N)NC(C)=O)C(=O)N[C@@H](CCC(N)=O)C(=O)N[C@@H]([C@@H](C)O)C(=O)N[C@@H](Cc4c[nH]c5ccccc45)C(=O)N[C@@H](CCC(N)=O)C(=O)N3)CCOCC2)C(N)=O)cc1OC [Compound 78, Ac-[(D)Arg]-[Abu]-Q-T-W-Q-[Cys]-Phe[4-(2-aminoethoxy)]-[2-Nal]-[THP]-[aMeGlu]-N-[Phe(3,4-diOMe)]-NH2] | 31 nM |
| CCC(=O)N[C@H](CCCNC(=N)N)C(=O)N[C@H]1CCSC[C@@H](C(=O)N[C@@H](Cc2ccc(OCCN)cc2)C(=O)N[C@@H](Cc2ccc3ccccc3c2)C(=O)NC2(C(=O)N[C@@H](CCC(=O)O)C(=O)N[C@@H](CC(N)=O)C(=O)NC3(C(N)=O)CCOCC3)CCOCC2)NC(=O)[C@H](CCC(N)=O)NC(=O)[C@H](Cc2c[nH]c3ccccc23)NC(=O)[C@H]([C@@H](C)O)NC(=O)[C@H](CCC(N)=O)NC1=O [Compound 2, [Propionic_acid]-[(D)Arg]-[Abu]-Q-T-W-Q-[Cys]-Phe[4-(2-aminoethoxy)]-[2-Nal]-[THP]-E-N-[THP]-NH2] | 3.3 nM |
| CC(=O)NCCCC[C@@H]1NC(=O)[C@H](Cc2c[nH]c3c(C)cccc23)NC(=O)[C@H]([C@@H](C)O)NC(=O)[C@H](CC(N)=O)NC(=O)[C@@H](NC(=O)[C@@H](CCCNC(=N)N)NC(C)=O)C(C)(C)SSC(C)(C)[C@@H](C(=O)N[C@@H](Cc2ccc(OCCN)cc2)C(=O)N[C@@H](Cc2ccc3ccccc3c2)C(=O)NC2(C(=O)N[C@@](C)(CCC(=O)O)C(=O)N[C@@H](CC(N)=O)C(=O)N[C@@](C)(Cc3ccc(O)cc3)C(N)=O)CCOCC2)NC1=O [Compound 150, Ac-[(D)Arg]-[Pen]-N-T-[W(7-Me)]-[Lys(Ac)]-[Pen]-Phe[4-(2-aminoethoxy)]-[2-Nal]-[THP]-[aMeGlu]-N-[aMeTyr]-NH2] (Ac-[dR][Pen]NT[Trp(7-Me)]K(Ac)[Pen][AEF][2Nal][Thp][αMeE]N[αMeY]-NH2; disulfide 2-7) | 4.7 nM |
| CC(=O)NCCCC[C@@H]1NC(=O)[C@H](Cc2c[nH]c3c(C)cccc23)NC(=O)[C@H]([C@@H](C)O)NC(=O)[C@H](CC(N)=O)NC(=O)[C@@H](NC(C)=O)C(C)(C)SSC(C)(C)[C@@H](C(=O)N[C@@H](Cc2ccc(OCCN)cc2)C(=O)N[C@@H](Cc2ccc3ccccc3c2)C(=O)N[C@@](C)(CCCCN)C(=O)N[C@@H](CCCCNC(C)=O)C(=O)N[C@@H](CC(N)=O)C(=O)N[C@@](C)(Cc2ccccc2)C(=O)N[C@H](Cc2cccc(N)c2)C(N)=O)NC1=O [Compound 115, Ac-[Pen]-N-T-[W(7-Me)]-[Lys(Ac)]-[Pen]-Phe[4-(2-aminoethoxy)]-[2-Nal]-[a-MeLys]-[Lys(Ac)]-N-[a-MePhe]-(D)Phe[3-NH2]-NH2] | 39 nM |
| CC(=O)N[C@H](CCCNC(=N)N)C(=O)N[C@H]1CCSC[C@@H](C(=O)N[C@@H](Cc2ccc(OCCN)cc2)C(=O)N[C@@H](Cc2ccc3ccccc3c2)C(=O)NC2(C(=O)N[C@@](C)(CCC(=O)O)C(=O)N[C@@H](CC(N)=O)C(=O)N[C@@](C)(Cc3c[nH]c4ccccc34)C(N)=O)CCOCC2)NC(=O)[C@H](CCC(N)=O)NC(=O)[C@H](Cc2c[nH]c3ccccc23)NC(=O)[C@H]([C@@H](C)O)NC(=O)[C@H](CCC(N)=O)NC1=O [Compound 31, Ac-[(D)Arg]-[Abu]-Q-T-W-Q-[Cys]-Phe[4-(2-aminoethoxy)]-[2-Nal]-[THP]-[aMeGlu]-N-ameW-NH2] | 16 nM |
| CCC(=O)N[C@H](CCCNC(=N)N)C(=O)N[C@@H]1C(=O)N[C@@H](CCC(N)=O)C(=O)N[C@@H]([C@@H](C)O)C(=O)N[C@@H](Cc2c[nH]c3ccccc23)C(=O)N[C@@H](CCC(N)=O)C(=O)N[C@H](C(=O)N[C@@H](Cc2ccc(OCCN)cc2)C(=O)N[C@@H](Cc2ccc3ccccc3c2)C(=O)NC2(C(=O)N[C@@H](CCC(=O)O)C(=O)N[C@@H](CC(N)=O)C(=O)NC3(C(N)=O)CCOCC3)CCOCC2)C(C)(C)SSC1(C)C [Compound 10, [Propionic_acid]-[(D)Arg]-[Pen]-Q-T-W-Q-[Pen]-Phe[4-(2-aminoethoxy)]-[2-Nal]-[THP]-E-N-[THP]-NH2] (Propionyl-[dR][Pen]QTWQ[Pen][AEF][2Nal][Thp]EN[Thp]-NH2; disulfide 2-7) | 4.6 nM |
| CC(=O)N[C@H](CCCNC(=N)N)C(=O)N[C@@H]1C(=O)N[C@@H](CCC(N)=O)C(=O)N[C@@H]([C@@H](C)O)C(=O)N[C@@H](Cc2c[nH]c3ccccc23)C(=O)N[C@@H](CCC(N)=O)C(=O)N[C@H](C(=O)N[C@@H](Cc2ccc(OCCN)cc2)C(=O)N[C@@H](Cc2ccc3ccccc3c2)C(=O)NC2(C(=O)N[C@@H](CCCCNC(=O)C(F)(F)F)C(=O)N[C@@H](CC(N)=O)C(=O)N[C@@H](Cc3ccccc3)C(N)=O)CCOCC2)C(C)(C)SSC1(C)C [Compound 60, Ac-[(D)Arg]-[Pen]-Q-T-W-Q-[Pen]-Phe[4-(2-aminoethoxy)]-[2-Nal]-[THP]-[Lys(COCF3)]-N-F-NH2] (Ac-[dR][Pen]QTWQ[Pen][AEF][2Nal][Thp]K(Tfa)NF-NH2; disulfide 2-7) | 44 nM |
| CC(=O)NCCCC[C@@H]1NC(=O)[C@H](Cc2c[nH]c3c(C)cccc23)NC(=O)[C@H]([C@@H](C)O)NC(=O)[C@H](CC(N)=O)NC(=O)[C@@H](NC(C)=O)C(C)(C)SSC(C)(C)[C@@H](C(=O)N[C@@H](Cc2ccc(OCCN)cc2)C(=O)N[C@@H](Cc2ccc3ccccc3c2)C(=O)N[C@@](C)(CCCCN)C(=O)N[C@@H](CCCCNC(C)=O)C(=O)N[C@@H](CC(N)=O)C(=O)N[C@@](C)(Cc2ccccc2)C(N)=O)NC1=O [Compound 76, Ac-[Pen]-N-T-[W(7-Me)]-[Lys(Ac)]-[Pen]-Phe[4-(2-aminoethoxy)]-[2-Nal]-[a-MeLys]-[Lys(Ac)]-N-[a-MePhe]-NH2] | 11 nM |
| CC(=O)NCCCC[C@@H]1NC(=O)[C@H](Cc2c[nH]c3ccccc23)NC(=O)[C@H]([C@@H](C)O)NC(=O)[C@H](CC(N)=O)NC(=O)[C@@H](NC(C)=O)C(C)(C)SSC(C)(C)[C@@H](C(=O)N[C@@H](Cc2ccc(OCCN)cc2)C(=O)N[C@@H](Cc2ccc3ccccc3c2)C(=O)N[C@@](C)(CCCCN)C(=O)N[C@@H](CCCCNC(C)=O)C(=O)N[C@@H](CC(N)=O)C(=O)NC2(C(N)=O)CCOCC2)NC1=O [Compound 95, Ac-[Pen]-N-T-W-[Lys(Ac)]-[Pen]-Phe[4-(2-aminoethoxy)]-[2-Nal]-[a-MeLys]-[Lys(Ac)]-N-[THP]-NH2] | 22 nM |
| CC(=O)NCCCC[C@@H]1NC(=O)[C@H](Cc2c[nH]c3c(C)cccc23)NC(=O)[C@H]([C@@H](C)O)NC(=O)[C@H](CC(N)=O)NC(=O)[C@@H](NC(=O)[C@@H](CCCNC(=N)N)NC(C)=O)C(C)(C)SSC(C)(C)[C@@H](C(=O)N[C@@H](Cc2ccc(OCCN)cc2)C(=O)N[C@@H](Cc2ccc3ccccc3c2)C(=O)NC2(C(=O)N[C@@H](CCC(=O)O)C(=O)N[C@@H](CC(N)=O)C(=O)N[C@@](C)(Cc3ccccc3)C(N)=O)CCOCC2)NC1=O [Compound 124, Ac-[(D)Arg]-[Pen]-N-T-[W(7-Me)]-[Lys(Ac)]-[Pen]-Phe[4-(2-aminoethoxy)]-[2-Nal]-[THP]-E-N-[a-MePhe]-NH2] (Ac-[dR][Pen]NT[Trp(7-Me)]K(Ac)[Pen][AEF][2Nal][Thp]EN[αMeF]-NH2; disulfide 2-7) | 11 nM |
| CC(=O)NCCCC[C@H](NC(=O)C1(NC(=O)[C@H](Cc2ccc3ccccc3c2)NC(=O)[C@H](Cc2ccc(OCCN)cc2)NC(=O)[C@H]2NC(=O)[C@H](CCC(N)=O)NC(=O)[C@H](Cc3c[nH]c4ccccc34)NC(=O)[C@H]([C@@H](C)O)NC(=O)[C@H](CCC(N)=O)NC(=O)[C@@H](NC(=O)[C@@H](CCCNC(=N)N)NC(C)=O)C(C)(C)SSC2(C)C)CCOCC1)C(=O)N[C@@H](CC(N)=O)C(=O)N[C@@H](Cc1ccccc1)C(N)=O [Compound 53, Ac-[(D)Arg]-[Pen]-Q-T-W-Q-[Pen]-Phe[4-(2-aminoethoxy)]-[2-Nal]-[THP]-[Lys(Ac)]-N-F-NH2] (Ac-[dR][Pen]QTWQ[Pen][AEF][2Nal][Thp]K(Ac)NF-NH2; disulfide 2-7) | 29 nM |
| CC(=O)N[C@H](CCCNC(=N)N)C(=O)N[C@@H]1C(=O)N[C@@H](CCC(N)=O)C(=O)N[C@@H]([C@@H](C)O)C(=O)N[C@@H](Cc2c[nH]c3ccccc23)C(=O)N[C@@H](CCC(N)=O)C(=O)N[C@H](C(=O)N[C@@H](Cc2ccc(OCCN)cc2)C(=O)N[C@@H](Cc2ccc3ccccc3c2)C(=O)NC2(C(=O)N[C@@H](CCCCNC(=O)C(C)C)C(=O)N[C@@H](CC(N)=O)C(=O)N[C@@H](Cc3ccccc3)C(N)=O)CCOCC2)C(C)(C)SSC1(C)C [Compound 61, Ac-[(D)Arg]-[Pen]-Q-T-W-Q-[Pen]-Phe[4-(2-aminoethoxy)]-[2-Nal]-[THP]-[Lys(COiPr)]-N-F-NH2] (Ac-[dR][Pen]QTWQ[Pen][AEF][2Nal][Thp]K(Isobutyryl)NF-NH2; disulfide 2-7) | 70 nM |
| CC(=O)NCCCC[C@@H]1NC(=O)[C@H](Cc2c[nH]c3ccccc23)NC(=O)[C@H]([C@@H](C)O)NC(=O)[C@H](CC(N)=O)NC(=O)[C@@H](NC(C)=O)CSSC[C@@](C)(C(=O)N[C@@H](Cc2ccc(OCCN)cc2)C(=O)N[C@@H](Cc2ccc3ccccc3c2)C(=O)N[C@@](C)(CCCCN)C(=O)N[C@@H](CCCCNC(C)=O)C(=O)N[C@@H](CC(N)=O)C(=O)N[C@@](C)(Cc2ccccc2)C(N)=O)NC1=O [Compound 122, Ac-[Cys]-N-T-W-[Lys(Ac)]-[aMeCys]-Phe[4-(2-aminoethoxy)]-[2-Nal]-[a-MeLys]-[Lys(Ac)]-N-[a-MePhe]-NH2] | 54 nM |
